Read-outs that look alike come from different tables or passages of the source.
Legend:
[1] = Hepatocyte intrinsic clearance assay; format: in vitro ADME, Human; conditions: pooled donor, cryopreserved hepatocytes, pH 7.4; human hepatocytes 1×10^6/mL; 0.05 μM; 2 h at 37° C.
Protocol: Test compounds (final concentration 0.05 μM, 0.05% organic) were incubated for 2 h at 37° C., with shaking, in supplemented Leibovitz L-15 media (pH 7.4) containing commercially sourced, pooled donor, cryopreserved hepatocytes (final concentration 1×10^6 hepatocytes/mL). The CLint reactions (350 μL) were initiated by addition of test compound. Aliquots (25 μL) were taken at 1, 5, 10, 15, 30, 60, 90 and 120 minutes and then protein crashed with ice-cold acetonitrile containing internal standard (150 μL) then centrifuged (1960 g for 20 minutes at 4° C.). Supernatant was diluted (1:4) with deionized water then analyzed by liquid chromatography (LC)-tandem mass spectrometry (MS/MS).

[2] = Hepatic microsomal intrinsic clearance assay; format: in vitro ADME; conditions: pooled liver microsomes, pH 7.4; liver microsomes 0.5 mg/mL; 1 μM; NADPH; 1 hour at 37° C.; LLOQ 0.36 L/h/kg
Protocol: Compounds (final concentration 1 μM, 1% organic) of the invention were incubated for 1 hour at 37° C., with shaking, in phosphate buffer (pH 7.4) containing commercially sourced pooled liver microsomes (final concentration 0.5 mg/mL). […] At designated time points (0, 5, 10, 20, 30 and 60 minutes) ice-cold acetonitrile containing internal standard (300 μL) was added to an incubation well to stop the reaction then mixed and centrifuged (3220 g for 20 minutes at 4° C.). Supernatant was diluted (1:4) with deionized water then analyzed by LC-MS/MS.

[3] = Fraction unbound in rat plasma and brain homogenate by equilibrium dialysis; format: in vitro ADME, male Sprague-Dawley rat; conditions: 1 μM, equilibrium dialysis 5 h at 37° C.; for fubrain (% free): rat brain homogenate; for fuplasma (% free): rat plasma
Protocol: The fraction of unbound compound in male Sprague-Dawley rat plasma (fuplasma) and brain homogenate (fubrain) were determined by equilibrium dialysis using 96-well HTD-dialysis plates with dialysis membranes (molecular weight cut off 12-14 KDa). One side of the HTD-dialysis plate was loaded with matrix (plasma or brain homogenate) and the other side with buffer (100 mM sodium phosphate buffer, pH 7.4). Test compounds were dissolved in DMSO then spiked (5 μL of 0.2 mM) into blank (995 μL) plasma or diluted brain homogenate (1:4 ratio in phosphate buffer) giving a final nominal concentration 1 μM (≤0.5% DMSO). The matrices were loaded into respective chambers and equilibrated against phosphate buffer for 5 h at 37° C. (in a humidified air incubator with 5% CO2 with shaking). Samples from both chambers (buffer and plasma or brain homogenate) were aliquoted to fresh 96-well polypropylene plates then matrix matched using an equal volume of opposite blank matrix before extraction with cold solvent (3 volumes acetonitrile) containing an appropriate bioanalytical internal standard. After centrifugation (20 min, 3200 g, 4° C.) the supernatants were diluted with appropriate volumes of water and compound concentrations were quantified by LC/MS-MS against matrix matched calibration standards. The fuplasma and fubrain were calculated according to equation 4 below.
[formula] Where [F] is the compound concentration on the buffer (receiver) side of the membrane; [T] is the compound concentration on the plasma or brain (donor) side of the membrane; D is the matrix dilution factor which is determined as D=4 for brain matrix and D=1 for plasma matrix in these assays.

[4] = Rat brain disposition after oral gavage; format: in vivo, male Sprague-Dawley rats; conditions: male, Sprague-Dawley, mean ± stdev; for Kp at 1 h / Kp uu at 1 h / concentration at 1 h: oral 5 mg/kg
Protocol: Brain disposition was evaluated in male Sprague-Dawley rats (n=3, standard body weight). Briefly, test compound was formulated as a simple suspension (0.5% HPMC in water) then administered by oral gavage (10 mg/kg, 10 mL/kg or 5 mg/kg, 10 mL/kg). At the designated time point (0.5 or 1 h post dose) rats were sacrificed and terminal blood and brain samples taken. Isolated plasma and brain homogenates were extracted by standard protein precipitation in acetonitrile, containing internal standard. Diluted extracts were analyzed by liquid-chromatography coupled with tandem mass spectrometry detection (LC-MS/MS) using a bioanalytical method. Concentrations of test compound in plasma and brain were quantified against matrix matched calibration standards. The total plasma and brain concentration time data are presented in Table 4 alongside the calculated brain Kp (total brain concentration:total plasma concentration ratio).
The total brain-to-plasma partition coefficient (brain Kp) is given by the ratio of the total brain concentration and total plasma concentration of the compound according to the equation below: […]
Based on the measured rat fuplasma and fubrain values and the brain Kp the unbound brain-to-plasma partition coefficient (brain Kp,uu for each compound was calculated. The Kp,uu parameter describes the extent of brain penetration for each compound, i.e. the parameter gives a direct quantitative description of how the blood-brain barrier (BBB) handles the compounds regarding passive transport and active influx/efflux. The brain Kp,uu is given by the equation below: […]

LRRK2 WT [5] = target: T1, LRRK2 WT (Homo sapiens (Human), UniProt Q5S007); experiment: LRRK2 wild-type LanthaScreen TR-FRET kinase activity assay; format: biochemical; conditions: 1 nM kinase, 1.3 mM ATP, n≥2 tests
T1 sequence (Q5S007 970-2527): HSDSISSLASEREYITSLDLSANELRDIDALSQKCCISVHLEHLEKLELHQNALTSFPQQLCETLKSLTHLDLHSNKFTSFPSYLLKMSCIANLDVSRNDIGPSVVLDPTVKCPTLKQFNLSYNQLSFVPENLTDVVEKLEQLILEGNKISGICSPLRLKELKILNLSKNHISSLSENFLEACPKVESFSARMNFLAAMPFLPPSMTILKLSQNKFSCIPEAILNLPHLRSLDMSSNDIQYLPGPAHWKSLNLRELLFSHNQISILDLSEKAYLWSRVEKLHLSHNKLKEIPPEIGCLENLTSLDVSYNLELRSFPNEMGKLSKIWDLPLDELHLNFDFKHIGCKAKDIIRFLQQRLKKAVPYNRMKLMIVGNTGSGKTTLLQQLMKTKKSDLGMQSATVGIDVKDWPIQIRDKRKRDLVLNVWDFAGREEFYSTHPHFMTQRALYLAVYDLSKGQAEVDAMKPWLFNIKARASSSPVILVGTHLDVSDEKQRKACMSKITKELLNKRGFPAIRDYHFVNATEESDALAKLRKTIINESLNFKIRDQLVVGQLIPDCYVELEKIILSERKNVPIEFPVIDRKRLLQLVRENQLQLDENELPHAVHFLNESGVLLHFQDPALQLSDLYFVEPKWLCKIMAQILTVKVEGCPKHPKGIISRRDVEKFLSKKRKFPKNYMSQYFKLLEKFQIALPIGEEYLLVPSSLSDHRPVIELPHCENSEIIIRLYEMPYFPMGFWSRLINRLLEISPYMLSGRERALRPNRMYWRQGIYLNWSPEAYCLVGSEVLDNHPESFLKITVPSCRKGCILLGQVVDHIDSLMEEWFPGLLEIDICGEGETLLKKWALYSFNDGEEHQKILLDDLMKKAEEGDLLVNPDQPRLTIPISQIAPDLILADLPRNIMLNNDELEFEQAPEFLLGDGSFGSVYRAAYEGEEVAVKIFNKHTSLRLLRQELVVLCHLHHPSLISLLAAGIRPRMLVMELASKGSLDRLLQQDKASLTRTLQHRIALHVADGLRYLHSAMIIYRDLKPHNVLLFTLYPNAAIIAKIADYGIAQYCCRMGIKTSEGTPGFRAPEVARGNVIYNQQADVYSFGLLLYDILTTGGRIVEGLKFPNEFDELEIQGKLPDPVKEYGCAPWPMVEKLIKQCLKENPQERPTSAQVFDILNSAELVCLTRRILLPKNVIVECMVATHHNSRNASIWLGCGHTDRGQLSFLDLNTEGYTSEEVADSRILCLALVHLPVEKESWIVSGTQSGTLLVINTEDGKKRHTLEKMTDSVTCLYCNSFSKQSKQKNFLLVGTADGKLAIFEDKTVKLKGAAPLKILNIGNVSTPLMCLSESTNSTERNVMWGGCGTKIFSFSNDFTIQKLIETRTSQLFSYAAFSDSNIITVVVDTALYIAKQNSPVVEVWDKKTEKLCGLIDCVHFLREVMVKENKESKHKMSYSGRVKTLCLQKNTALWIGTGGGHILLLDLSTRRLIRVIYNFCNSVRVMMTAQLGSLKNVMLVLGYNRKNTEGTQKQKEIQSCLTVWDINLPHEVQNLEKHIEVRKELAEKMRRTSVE
Protocol: (§1) LRRK2 kinase activity was measured using a LanthaScreen kinase activity assay available from Invitrogen (Life Technologies Corporation). […] The phosphorylated peptide is recognized by a terbium-labelled phospho-specific anti-LRRKtide antibody (pLRRKtide antibody), obtainable from Life Technologies Corporation) and, subsequently, the phosphorylated LRRKtide can be quantified by the extent of TR-FRET between the terbium donor and fluorescein acceptor.
(§2) As discussed above, this mutation increases the kinase activity relative to the wild type. The kinase reactions were performed in a 20 μL volume in 384-well plates. The kinase reaction buffer consisted of 50 mM Tris pH 8.5, 0.01% BRIJ-35, 10 mM MgCl2, 1 mM EGTA, and 2 mM DTT.
(§3) The mixture was further incubated for 30 minutes at RT. TR-FRET was measured by excitation of the terbium-donor with 340 nm light and subsequent (delay time […]) measurement of terbium and fluorescein emission at 495 nm and 520 nm, respectively, over a time window of […]. The measurement was repeated 30 times for fluorescein and 30 times for terbium emission with a […] between repeats. TR-FRET measurements were performed on a Biotek Synergy plate. The TR-FRET signal was calculated as the emission-ratio at 520 nm over 495 nm.
(§4) Test compound potency (IC50) was estimated by nonlinear regression using the sigmoidal dose-response (variable slope) using Xlfit 4 (IDBS, Guildford, Surrey, UK, model 205). Were the IC50 could not be determined the % inhibition at the highest tested concentration is given by equation 1. Equation (1): y=(A+((B−A)/(1+((C/x)^D)))) (1)
(§5) where y is the normalized TR-TRET ratio measurement for a given concentration of test compound, x is the concentration of test compound, A is the estimated efficacy (% inhibition) at infinite compound dilution, and B is the maximal efficacy (% inhibition). C is the IC50 value and D is the Hill slope coefficient. IC50 estimates were obtained from independent experiment and the logarithmic average was calculated.

LRRK2 WT [6] = target: T1, LRRK2 WT; experiment: LRRK2 wild-type ADP-Glo kinase assay; format: biochemical; conditions: 0.5 nM kinase; 1.0 mM ATP; IC50=Ki,app+[E]/2; n≥2 tests; read-out: LRRK2 WT ADPGlo IC50
Protocol: LRRK2 kinase activity was measured using an ADP-Glo kinase assay from Promega Corporation. The assay is a homogeneous luminescence-based assay that measures ADP formed from a kinase reaction. The ADP is converted into ATP, which is used to generate light in a luciferase reaction. The luminescence generated correlates with kinase activity.
The LRRK2 kinase was obtained from Invitrogen (Life Technologies Corporation) and comprises residue 970 to 2527 of the full length human wild-type LRRK2 kinase. The kinase reactions were performed in a 10 μL volume in 384-well plates. The kinase reaction buffer consisted of 50 mM Tris pH 8.5, 0.01% BRIJ-35, 10 mM MgCl2, 1 mM EGTA, and 2 mM DTT.
The reaction mixture (10 μl total volume) was incubated for 3 hours at room temperature (RT, ca. 25° C.), before the reaction was terminated by addition of 10 μl ADP-Glo reagent. The mixture was further incubated for 60 minutes at RT before addition of 20 μl Kinase detection reagent from the ADP-Glo assay kit. Luminescence signal was measure on a BMG Labtech Pherastar FSX multimode microplate reader. The signal integration time was 0.5 s.
Test compound potency (Ki,app) was estimated by nonlinear regression using the tight-binding fit model in GeneData Screener (GeneData AG). In cases where the Ki,app could not be determined, the % inhibition at the highest tested concentration is reported. The tight-binding fit model is given by euquation (2). […] Ki,app is the apparent dissociation constant of the inhibitor. The IC50 can be calculated as given by equation (3). Equation (3): IC50=Ki,app+[E]/2 (3) IC50 estimates were obtained from independent experiment and the logarithmic average was calculated.

LRRK2 G2019S = LRRK2 G2019S (Homo sapiens (Human), UniProt Q5S007, G2019S); experiment: LRRK2 G2019S LanthaScreen TR-FRET kinase activity assay; format: biochemical; conditions: 250 pM kinase, 1.3 mM ATP, n≥2 tests
LRRK2 G2019S, sequence (Q5S007 970-2527 G2019S): as the sequence (Q5S007 970-2527) above, with G1050S counted along it
Protocol: as §1, §2, §3, §4, §5

[7] = brain, n=3, read-out: Total brain concentration
[8] = plasma, n=3, read-out: Total plasma concentration
[9] = brain, oral 10 mg/kg, 0.5 h, n=3

CLint scaled at 0.05 μM [1] | Compound | CLint scaled at 1 μM [2] | fubrain (% free) [3] | fuplasma (% free) [3] | Kp at 1 h ([4]; brain, n=3) | Kp uu at 1 h ([4]; brain, n=3) | concentration at 1 h [4, 7] | concentration at 1 h [4, 8] | IC50 (LRRK2 WT [5]) | IC50 (LRRK2 WT [6]) | IC50 (LRRK2 G2019S) | Kp at 0.5 h [4, 9] | Kp uu at 0.5 h [4, 9] | concentration at 0.5 h ([4]; brain, oral 10 mg/kg, 0.5 h, n=3, read-out: Total brain concentration) | concentration at 0.5 h ([4]; plasma, oral 10 mg/kg, 0.5 h, n=3, read-out: Total plasma concentration)
19.8 mL/min/kg | [2H]C([2H])([2H])c1c2c(nn1-c1ccc(C)nc1C)OCCCn1nc(Cl)c3cnc(nc31)N2 [Example 25, 8-Chloro-2-(2,6-dimethylpyridin-3-yl)-3-(methyl-d3)-2,4,12,13-tetrahydro-11H-5,7-(azenometheno)dipyrazolo[3,4-b:5′,1′-g][1]oxa[4,6,8]triazacycloundecine] | < 6 mL/min/kg |  |  |  |  |  |  |  |  |  |  |  |  | 
 | CCc1c2c(nn1-c1cccnc1OC)OCCCn1nc(Cl)c3cnc(nc31)N2 [Example 5, 8-Chloro-3-ethyl-2-(2-methoxypyridin-3-yl)-2,4,12,13-tetrahydro-11H-5,7-(azenometheno)dipyrazolo[3,4-b:5′,1′-g][1]oxa[4,6,8]triazacycloundecine] | 23.2 mL/min/kg | 5.2 % free | 12.3 % free | 1.9 ± 0.3 | 0.8 ± 0.13 | 7 ± 3 ng/g | 4 ± 0.8 ng/mL | 4 nM | 0.41 nM | 1.4 nM |  |  |  | 
 | CCc1c2c(nn1-c1cccnc1C)OCCCn1nc(Cl)c3cnc(nc31)N2 [Example 8, 8-Chloro-3-ethyl-2-(2-methylpyridin-3-yl)-2,4,12,13-tetrahydro-11H-5,7-(azenometheno)dipyrazolo[3,4-b:5′,1′-g][1]oxa[4,6,8]triazacycloundecine] | 16.8 mL/min/kg | 7.5 % free | 19.3 % free | 0.9 ± 0.1 | 0.37 ± 0.03 | 279 ± 10 ng/g | 297 ± 29 ng/mL | 35 nM | 2.5 nM | 12 nM |  |  |  | 
 | Cc1c2c(nn1-c1cccnc1OCF)OCCCn1nc(Cl)c3cnc(nc31)N2 [Example 18, 8-Chloro-2-(2-(fluoromethoxy)pyridin-3-yl)-3-methyl-2,4,12,13-tetrahydro-11H-5,7-(azenometheno)dipyrazolo[3,4-b:5′,1′-g][1]oxa[4,6,8]triazacycloundecine] | 11.2 mL/min/kg | 4.7 % free | 12.8 % free | 2.8 ± 0.6 | 1.04 ± 0.21 | 343 ± 54 ng/g | 122 ± 11 ng/mL | 0.67 nM | 0.44 nM | 0.49 nM |  |  |  | 
 | CCOc1ncccc1-n1nc2c(c1C)Nc1ncc3c(Cl)nn(c3n1)CCCO2 [Example 2, 8-Chloro-2-(2-ethoxypyridin-3-yl)-3-methyl-2,4,12,13-tetrahydro-11H-5,7-(azenometheno)dipyrazolo[3,4-b:5′,1′-g][1]oxa[4,6,8]triazacycloundecine] | 20.8 mL/min/kg | 2.7 % free | 9.7 % free |  |  |  |  | 0.98 nM | 0.28 nM | 0.35 nM | 1.2 ± 0.7 | 0.35 ± 0.18 | 31 ± 11 ng/g | 32 ± 18 ng/mL
 | Cc1c2c(nn1-c1cccnc1OC1CC1)OCCCn1nc(Cl)c3cnc(nc31)N2 [Example 16, 8-Chloro-2-(2-cyclopropoxypyridin-3-yl)-3-methyl-2,4,12,13-tetrahydro-11H-5,7-(azenometheno)dipyrazolo[3,4-b:5′,1′-g][1]oxa[4,6,8]triazacycloundecine] | 18.7 mL/min/kg | 3.5 % free | 13.9 % free | 1.3 ± 0.2 | 0.32 ± 0.06 | 141 ± 30 ng/g | 112 ± 18 ng/mL | 2.1 nM | 0.57 nM | 0.93 nM |  |  |  | 
